# In patent US20120157401A1, “METHODS FOR TREATING NEUROFIBROMATOSIS” (PTC Therapeutics, Inc., priority 2009, published 2012):
# System: hypoxia-inducible endogenous VEGF expression
# Assay: Hypoxia-inducible endogenous VEGF expression ELISA in HeLa cells, dose-response EC50 (Table 3)
# Assay type: cell-based, human
# Details: HeLa cells, hypoxic conditions (1% O2), 24-48 hours, VEGF in conditioned media; read-out: ELISA EC50
# Method in brief: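 HeLa cells kept 24-48 h under hypoxia (1% O2, 5% CO2, nitrogen balance) with or without compound, e.g. seven concentrations; secreted VEGF in conditioned medium quantified by ELISA against a standard curve. Parallel Cell Titer Glo viability under identical conditions excludes cytotoxicity.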
row,Structure (SMILES),EC50 [µM]
1,O=C(Oc1ccc(Cl)cc1)N1CCc2c([nH]c3ccc(Cl)cc23)C1c1ccc(OCCCCn2ccnc2)cc1 (centres unmarked) [Compound 1001],0.008 to 0.04

# Same assay, conditions: Homo sapiens, HeLa, read-out: ELISA EC50 μM
row,Structure (SMILES),EC50 [µM]
1,COc1ccc(OC(=O)N2CCc3c([nH]c4ccc(Cl)cc34)C2c2ccc(OCCCN3CCOCC3)cc2)cc1 (centres unmarked) [Compound 1030],0.008 to 0.04
2,COCCN(CCCOc1ccc(C2c3[nH]c4ccc(Cl)cc4c3CCN2C(=O)Oc2ccc(F)cc2)cc1)CCOC (centres unmarked) [Compound 990],< 0.008
3,O=C(Oc1ccc(F)cc1)N1CCc2c([nH]c3ccc(Cl)cc23)C1c1ccc(OCCCN2CCSCC2)cc1 (centres unmarked) [Compound 991],0.04 to 0.2
4,O=C(Oc1ccc(Cl)cc1)N1CCc2c([nH]c3ccc(Cl)cc23)[C@@H]1c1ccc(OCCCNC2CCCC2)cc1 [Compound 1235],0.008 to 0.04
5,O=C(Oc1ccc(Cl)cc1)N1CCc2c([nH]c3ccc(Cl)cc23)C1c1ccc(OCC(O)CN2CCOCC2)cc1 (centres unmarked) [Compound 904],< 0.008
6,CC(=O)N1CCN(CCCOc2ccc(C3c4[nH]c5ccc(Cl)cc5c4CCN3C(=O)Oc3ccc(F)cc3)cc2)CC1 (centres unmarked) [Compound 988],< 0.008
7,Cc1ccc(OC(=O)N2CCc3c([nH]c4ccc(Cl)cc34)[C@@H]2c2ccc(OCCC(O)CN(CCO)CCO)cc2)cc1 (some centres unmarked) [Compound 1288],0.008 to 0.04
8,O=C(Oc1ccc(Cl)cc1)N1CCc2c([nH]c3ccc(Cl)cc23)[C@@H]1c1ccc(OCCCNC(CO)(CO)CO)cc1 [Compound 1255],0.04 to 0.2
9,CN1CCN(CCCOc2ccc(C3c4[nH]c5ccc(Cl)cc5c4CCN3C(=O)Oc3ccc(Cl)cc3)cc2)CC1 (centres unmarked) [Compound 961],0.008 to 0.04
10,CN1CCN(CCCCCCOc2ccc(C3c4[nH]c5ccc(Cl)cc5c4CCN3C(=O)Oc3ccc(F)cc3)cc2)CC1 (centres unmarked) [Compound 778],< 0.008
11,O=C(Oc1ccc(Cl)cc1)N1CCc2c([nH]c3ccc(Cl)cc23)[C@@H]1c1ccc(OCCCN(CCO)CCO)cc1 [Compound 1258],< 0.008
12,CN1CCN(CCCOc2ccc(C3c4[nH]c5ccc(Cl)cc5c4CCN3C(=O)Oc3ccc(F)cc3)cc2)CC1 (centres unmarked) [Compound 993],< 0.008
13,COCCN(C)CCCOc1cccc(C2c3[nH]c4ccc(Cl)cc4c3CCN2C(=O)Oc2ccc(F)cc2)c1 (centres unmarked) [Compound 1121],> 1
14,COCCN(C)CC(O)COc1ccc(C2c3[nH]c4ccc(Cl)cc4c3CCN2C(=O)Oc2ccc(Cl)cc2)cc1 (centres unmarked) [Compound 964],0.008 to 0.04
15,O=C(Oc1ccc(Cl)cc1)N1CCc2c([nH]c3ccc(Cl)cc23)[C@@H]1c1ccc(OC[C@H](O)CN2CCOCC2)cc1 [Compound 1070],< 0.008
16,COCCN1CCN(C(=O)COc2ccc(C3c4[nH]c5ccc(Cl)cc5c4CCN3C(=O)Oc3ccc(F)cc3)cc2)CC1 (centres unmarked) [Compound 1021],0.04 to 0.2
17,O=C(Oc1ccc(Cl)cc1)N1CCc2c([nH]c3ccc(Cl)cc23)[C@@H]1c1ccc(OCCC(O)CN2CCOCC2)cc1 (some centres unmarked) [Compound 1279],< 0.008
18,O=C(Oc1ccc(Cl)cc1)N1CCc2c([nH]c3ccc(Cl)cc23)C1c1ccc(OCCCN2CCC(O)CC2)cc1 (centres unmarked) [Compound 1537],< 0.008

# Same assay, conditions: Homo sapiens; HeLa cells, hypoxic conditions (1% O2), 24-48 hours, VEGF in conditioned media; read-out: ELISA EC50
row,Structure (SMILES),EC50 [µM]
1,CCS(=O)(=O)Nc1ccc(C2c3[nH]c4ccc(Cl)cc4c3CCN2C(=O)Oc2ccc(Cl)cc2)cc1 (centres unmarked) [Compound 958],0.008 to 0.04
2,COCCOCCOc1ccc(C2c3[nH]c4ccc(Cl)cc4c3CCN2C(=O)Oc2ccc(C)cc2)cc1 (centres unmarked) [Compound 677],0.008 to 0.04
3,C=CCOc1ccc(C2c3[nH]c4ccc(Cl)cc4c3CCN2C(=O)Oc2ccccc2)cc1 (centres unmarked) [Compound 413],< 0.008
4,O=C(Oc1ccc(F)cc1)N1CCc2c([nH]c3ccc(Cl)cc23)C1c1ccc(OCCNc2nccs2)cc1 (centres unmarked) [#837],< 0.008
5,O=C(Oc1ccc(Cl)cc1)N1CCc2c([nH]c3ccc(Cl)cc23)C1c1ccc(OCC2CO2)cc1 (centres unmarked) [Compound 460],0.008 to 0.04
6,O=C(Oc1ccc(Cl)cc1)N1CCc2c([nH]c3ccc(Cl)cc23)C1c1ccc(OCCn2ccnn2)cc1 (centres unmarked) [Compound 839],0.008 to 0.04
7,COCC(=O)NCC(O)CCOc1ccc([C@H]2c3[nH]c4ccc(Cl)cc4c3CCN2C(=O)Oc2ccc(Cl)cc2)cc1 (some centres unmarked) [Compound 1278],< 0.008
8,COc1ccc(C2c3[nH]c4ccc(OCc5ccccc5)cc4c3CCN2C(=O)Oc2ccc(Cl)cc2)cc1 (centres unmarked) [Compound 616],0.2 to 1
9,O=C(Oc1ccc(Cl)cc1)N1CCc2c([nH]c3ccc(Cl)cc23)[C@H]1c1ccc(OCCCn2ccnn2)cc1 [Compound 1069],< 0.008
10,Cc1ccc(OC(=O)N2CCc3c([nH]c4ccc(Cl)cc34)[C@@H]2c2ccc(OCCC(O)Cn3nccn3)cc2)cc1 (some centres unmarked) [Compound 1290],< 0.008
11,CCOC(=O)Nc1ccc(C2c3[nH]c4ccc(Cl)cc4c3CCN2C(=O)Oc2ccc(Cl)cc2)cc1 (centres unmarked) [Compound 467],0.008 to 0.04
12,CC1(C)OC[C@H](CCOc2ccc(C3c4[nH]c5ccc(Cl)cc5c4CCN3C(=O)Oc3ccc(Cl)cc3)cc2)O1 (some centres unmarked) [Compound 1162],< 0.008
13,O=C(Oc1ccc(F)cc1)N1CCc2c([nH]c3ccc(Cl)cc23)[C@@H]1c1ccc(OCC[C@H](O)CO)cc1 [Compound 1293],< 0.008
14,COCCOC(=O)Nc1ccc(C2c3[nH]c4ccc(Cl)cc4c3CCN2C(=O)Oc2ccc(Cl)cc2)cc1 (centres unmarked) [Compound 470],0.008 to 0.04
15,O=C(Oc1ccc(Cl)cc1)N1CCc2c([nH]c3ccc(Cl)cc23)C1c1ccc(F)cc1 (centres unmarked) [Compound 444],0.008 to 0.04
16,O=C(Oc1ccc(Br)cc1)N1CCc2c([nH]c3ccc(Cl)cc23)C1c1ccc(OCC(O)CO)cc1 (centres unmarked) [Compound 630],< 0.008
17,CC(C)c1ccc(C2c3[nH]c4ccc(Br)cc4c3CCN2C(=O)Oc2ccc(Cl)cc2)cc1 (centres unmarked) [Compound 354],< 0.008
18,O=C(Oc1ccccc1)N1CCc2c([nH]c3ccc(Cl)cc23)C1c1ccc(OCCCn2nccn2)cc1 (centres unmarked) [Compound 1078],0.008 to 0.04
19,O=C(Oc1ccc(F)cc1)N1CCc2c([nH]c3ccc(Cl)cc23)C1c1ccc(OCC[C@H](O)CO)cc1 (some centres unmarked) [Compound 1179],< 0.008
20,CS(=O)(=O)c1ccc(C2c3[nH]c4ccc(Cl)cc4c3CCN2C(=O)Oc2ccc(Cl)cc2)cc1 (centres unmarked) [Compound 360],0.008 to 0.04
21,COc1ccc(C2c3[nH]c4ccc(OC)cc4c3CCN2C(=O)Oc2ccc(Cl)cc2)cc1 (centres unmarked) [Compound 614],0.2 to 1
22,COc1ccc(OC(=O)N2CCc3c([nH]c4ccc(Cl)cc34)C2c2ccc(OCC(N)=O)cc2)cc1 (centres unmarked) [Compound 1216],0.008 to 0.04
23,COCCOc1ccc(C2c3[nH]c4ccc(Cl)cc4c3CCN2C(=O)Oc2ccc(F)cc2)cc1 (centres unmarked) [Compound 388],< 0.008
24,COC(=O)c1ccc(C2c3[nH]c4ccc(Br)cc4c3CCN2C(=O)Oc2ccc(Cl)cc2)cc1 (centres unmarked) [Compound 591],< 0.008
25,COc1ccc(C2c3[nH]c4ccc(Cl)cc4c3CCN2C(=O)Oc2ccc(F)cc2)cc1 (centres unmarked) [Compound 401],< 0.008
26,COc1ccc(C2c3[nH]c4ccc(Cl)cc4c3CCN2C(=O)Oc2ccc(C)cc2)c(F)c1 (centres unmarked) [Compound 1266],< 0.008
27,O=C(Oc1ccccc1Cl)N1CCc2c([nH]c3ccc(Cl)cc23)C1c1ccc(C(F)(F)F)cc1 (centres unmarked) [Compound 594],0.04 to 0.2
28,O=C(Oc1ccc(F)cc1)N1CCc2c([nH]c3ccc(Cl)cc23)C1c1ccc(OCC2CO2)cc1 (centres unmarked) [Compound 967],0.008 to 0.04
29,CS(=O)(=O)Nc1ccc(C2c3[nH]c4ccc(Cl)cc4c3CCN2C(=O)Oc2ccc(Cl)cc2)cc1 (centres unmarked) [Compound 974],0.04 to 0.2
30,COC(=O)c1ccc(C2c3[nH]c4ccc(Cl)cc4c3CCN2C(=O)Oc2ccc(F)cc2)cc1 (centres unmarked) [Compound 395],< 0.008

# Same assay, conditions: Homo sapiens; HeLa cells, hypoxic conditions (1% O2), VEGF ELISA of conditioned media; read-out: ELISA EC50
row,Structure (SMILES),EC50 [µM]
1,C[Si](C)(C)CCS(=O)(=O)N1CCC(Oc2ccc(C3c4[nH]c5ccc(Cl)cc5c4CCN3C(=O)Oc3ccc(F)cc3)cc2)CC1 (centres unmarked) [Compound 1580],< 0.008
2,O=C(Oc1ccc(F)cc1)N1CCc2c([nH]c3ccc(Cl)cc23)C1c1ccc(OC2CCOCC2)cc1 (centres unmarked) [Compound 1577],< 0.008
3,CCC(CO)(CO)COc1ccc([C@H]2c3[nH]c4ccc(Cl)cc4c3CCN2C(=O)Oc2ccc(F)cc2)cc1 [Compound 1328],< 0.008
4,C[Si](C)(C)CCS(=O)(=O)N1CCC(Oc2ccc([C@H]3c4[nH]c5ccc(Cl)cc5c4CCN3C(=O)Oc3ccc(F)cc3)cc2)CC1 [Compound 1607],< 0.008
5,Cc1ccc(OC(=O)N2CCc3c([nH]c4ccc(Cl)cc34)[C@@H]2c2ccc(OCCC(O)CNC(=O)C(C)C)cc2)cc1 (some centres unmarked) [Compound 1640],< 0.008
6,CCC(CO)(CO)COc1ccc([C@H]2c3[nH]c4ccc(Cl)cc4c3CCN2C(=O)Oc2ccc(Cl)cc2)cc1 [Compound 1329],< 0.008
7,CC(=O)Oc1ccc([C@@H]2c3[nH]c4ccc(Cl)cc4c3CCN2C(=O)Oc2ccc(Cl)cc2)cc1 [Compound 1539],0.04 to 0.2
8,Cc1nccnc1Oc1ccc([C@H]2c3[nH]c4ccc(Cl)cc4c3CCN2C(=O)Oc2ccc(Cl)cc2)cc1 [Compound 1659],< 0.008
9,N#CCOc1ccc(C2c3[nH]c4ccc(Cl)cc4c3CCN2C(=O)Oc2ccc(Br)cc2)cc1 (centres unmarked) [Compound 1547],< 0.008
10,O=C(Oc1ccc(F)cc1)N1CCc2c([nH]c3ccc(Br)cc23)C1c1ccc(OCC[C@H](O)CO)cc1 (some centres unmarked) [Compound 1348],< 0.008
11,O=C(Oc1ccc(Cl)cc1)N1CCc2c([nH]c3ccc(Cl)cc23)C1c1ccc(OC2COC(c3ccccc3)OC2)cc1 (centres unmarked) [Compound 1569],< 0.008
12,O=C(Oc1ccc(F)cc1)N1CCc2c([nH]c3ccc(Cl)cc23)C1c1ccc(OCCNc2ncncn2)cc1 (centres unmarked) [Compound 1440],< 0.008
13,CCCOC(=O)NCC(O)CCOc1ccc([C@H]2c3[nH]c4ccc(Cl)cc4c3CCN2C(=O)Oc2ccc(C)cc2)cc1 (some centres unmarked) [Compound 1644],< 0.008
14,Nc1ccn(CCOc2ccc(C3c4[nH]c5ccc(Cl)cc5c4CCN3C(=O)Oc3ccc(Cl)cc3)cc2)n1 (centres unmarked) [Compound 1417],< 0.008
15,CCC(CO)(CO)COc1ccc(C2c3[nH]c4ccc(Br)cc4c3CCN2C(=O)Oc2ccc(Cl)cc2)cc1 (centres unmarked) [Compound 1358],< 0.008
16,CS(=O)(=O)Cc1cnc(Oc2ccc([C@H]3c4[nH]c5ccc(Cl)cc5c4CCN3C(=O)Oc3ccc(Cl)cc3)cc2)s1 [Compound 1702],< 0.008
